Assay results reported in ChEMBL document CHEMBL4017496 (J Med Chem, 2017).
Active and inactive are the calls of the source. No cut-off for these calls is given here.

Legend:
[1] = tested on: Mesenchymal stem cell; assay: Induction of adipogenesis in human bone marrow-derived mesenchymal stem cells assessed as increase in number and size of lipid droplets at 20 uM after 7 days in presence of IDX by oil red O staining based inverted microscopic method; assay type: functional
[2] = target: T1, Peroxisome proliferator-activated receptor delta (Homo sapiens) (UniProt Q03181); assay: Displacement of Fluormone-Pan-PPAR Green from human GST-tagged PPARdelta LBD at 4 uM by TR-FRET assay relative to control
T1 sequence (whole entry): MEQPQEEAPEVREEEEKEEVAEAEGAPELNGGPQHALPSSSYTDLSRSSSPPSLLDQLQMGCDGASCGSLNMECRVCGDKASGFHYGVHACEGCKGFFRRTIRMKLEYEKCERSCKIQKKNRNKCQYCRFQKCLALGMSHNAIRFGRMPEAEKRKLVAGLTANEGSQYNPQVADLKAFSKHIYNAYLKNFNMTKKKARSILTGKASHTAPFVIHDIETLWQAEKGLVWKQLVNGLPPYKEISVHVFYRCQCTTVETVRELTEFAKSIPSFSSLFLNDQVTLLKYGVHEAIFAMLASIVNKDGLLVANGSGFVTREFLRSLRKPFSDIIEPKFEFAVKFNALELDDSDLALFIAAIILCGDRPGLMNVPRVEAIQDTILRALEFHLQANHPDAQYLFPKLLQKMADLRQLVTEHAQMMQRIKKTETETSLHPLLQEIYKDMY

[3] = tested on: Mus musculus; assay: Antidiabetic activity in STZ-induced diabetic C57BL/6J mouse assessed as insulin sensitivity by measuring reduction of serum glucose levels at 20 mg/kg,po for 5 days measured at 1 and 4 hrs post last dose; assay type: functional, organism-based
[4] = tested on: Mus musculus; assay: Antidiabetic activity in STZ-induced diabetic C57BL/6J mouse assessed as insulin sensitivity by measuring reduction of serum triglyceride level at 20 mg/kg,po for 5 days; assay type: functional, organism-based
[5] = target: T2, Oxysterols receptor LXR-alpha (Homo sapiens) (UniProt Q13133); assay: Binding affinity to human LXRalpha at 4 uM by TR-FRET assay
T2 sequence (whole entry): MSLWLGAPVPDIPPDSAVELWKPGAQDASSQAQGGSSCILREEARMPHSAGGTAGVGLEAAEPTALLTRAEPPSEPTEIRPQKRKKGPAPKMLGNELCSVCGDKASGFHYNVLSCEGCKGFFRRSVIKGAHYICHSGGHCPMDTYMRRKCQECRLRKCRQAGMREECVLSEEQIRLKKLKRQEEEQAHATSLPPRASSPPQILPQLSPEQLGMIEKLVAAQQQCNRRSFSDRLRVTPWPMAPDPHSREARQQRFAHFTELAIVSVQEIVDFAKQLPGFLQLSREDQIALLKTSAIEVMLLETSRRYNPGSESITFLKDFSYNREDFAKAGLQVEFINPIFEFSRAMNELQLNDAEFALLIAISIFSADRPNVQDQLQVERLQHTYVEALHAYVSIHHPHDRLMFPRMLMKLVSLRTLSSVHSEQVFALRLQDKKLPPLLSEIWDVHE

[6] = target: T3, Peroxisome proliferator-activated receptor alpha (Homo sapiens) (UniProt Q07869); assay: Displacement of Fluormone-Pan-PPAR Green from human GST-tagged PPARalpha LBD at 4 uM by TR-FRET assay relative to control
T3 sequence (whole entry): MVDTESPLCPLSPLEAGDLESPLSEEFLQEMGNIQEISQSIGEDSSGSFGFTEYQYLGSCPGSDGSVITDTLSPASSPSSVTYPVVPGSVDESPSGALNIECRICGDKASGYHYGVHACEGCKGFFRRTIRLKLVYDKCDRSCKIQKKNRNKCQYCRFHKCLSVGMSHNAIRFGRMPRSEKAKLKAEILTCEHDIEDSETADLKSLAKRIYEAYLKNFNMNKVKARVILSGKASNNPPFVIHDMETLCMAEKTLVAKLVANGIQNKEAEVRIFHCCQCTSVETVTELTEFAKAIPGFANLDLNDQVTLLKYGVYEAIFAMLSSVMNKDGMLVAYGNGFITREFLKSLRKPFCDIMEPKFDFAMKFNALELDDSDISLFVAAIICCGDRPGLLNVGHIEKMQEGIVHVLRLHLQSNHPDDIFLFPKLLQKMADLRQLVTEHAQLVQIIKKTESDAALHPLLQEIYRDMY

[7] = target: T1, Peroxisome proliferator-activated receptor delta (Homo sapiens); assay: Transactivation of human GST-tagged PPARdelta LBD assessed as fluorescein-C33 coactivator recruitment at 10 uM by TR-FRET assay
[8] = target: T4, Peroxisome proliferator-activated receptor gamma (Homo sapiens) (UniProt P37231); assay: Displacement of Fluormone-Pan-PPAR Green from human GST-tagged PPARgamma LBD at 20 uM by TR-FRET assay relative to control
T4 sequence (whole entry): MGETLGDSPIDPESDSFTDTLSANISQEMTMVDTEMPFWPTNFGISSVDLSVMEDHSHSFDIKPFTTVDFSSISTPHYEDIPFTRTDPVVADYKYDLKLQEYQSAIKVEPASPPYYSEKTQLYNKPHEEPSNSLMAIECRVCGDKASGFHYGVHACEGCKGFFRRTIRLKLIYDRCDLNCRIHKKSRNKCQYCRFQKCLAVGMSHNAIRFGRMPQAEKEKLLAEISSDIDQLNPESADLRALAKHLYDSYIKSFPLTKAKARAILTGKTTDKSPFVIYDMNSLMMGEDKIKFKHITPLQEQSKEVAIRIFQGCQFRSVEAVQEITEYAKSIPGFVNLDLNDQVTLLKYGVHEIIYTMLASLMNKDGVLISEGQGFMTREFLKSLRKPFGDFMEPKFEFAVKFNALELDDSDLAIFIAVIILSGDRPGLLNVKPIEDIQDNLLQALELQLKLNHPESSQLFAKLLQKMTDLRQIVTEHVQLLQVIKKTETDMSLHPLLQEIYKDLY

[9] = target: T4, Peroxisome proliferator-activated receptor gamma (Homo sapiens); assay: Transactivation of human PPARgamma expressed in African green monkey CV1 cells at 10 uM by luciferase reporter gene assay relative to control; assay type: cell-based
[10] = tested on: Mesenchymal stem cell; assay: Induction of adipogenesis in human bone marrow-derived mesenchymal stem cells assessed as increase in the production of adiponectin measured on day 7 after 48 hrs by ELISA; assay type: functional, cell-based

With `CNC(=O)[C@H]1O[C@@H](n2cnc3c(NCc4cccc(I)c4)ncnc32)[C@H](O)[C@@H]1O` [IB-MECA] the Activity [1] was “Active”, the inhibition [2] was 26% and the Activity [3] was “Active”. The Activity [4] was “Active”, the Activity [5] was “inactive” and the inhibition [6] was “inactive”. The Activity [7] was “inactive”, the inhibition [8] was 22.2% and the Activity [9] was 29.9%. For the same compound, the Activity [10] was “Dose-dependent effect”.
